Patent US20160362408A1 (Bayer Pharma Aktiengesellschaft, priority 2013, published 2016)
Structures can show the parent of a compound that is named as a salt.

What follows are compounds tested against T1, recombinant guanylate cyclase reporter cell line (Rattus norvegicus, UniProt P19686+P20595) (assay: Effect on a recombinant guanylate cyclase reporter cell line). Conditions: MEC = minimum effective concentration; in some cases mean values for individual determinations.
T1 construct: expressed in transfected cells
T1 sequence (P19686 1-690): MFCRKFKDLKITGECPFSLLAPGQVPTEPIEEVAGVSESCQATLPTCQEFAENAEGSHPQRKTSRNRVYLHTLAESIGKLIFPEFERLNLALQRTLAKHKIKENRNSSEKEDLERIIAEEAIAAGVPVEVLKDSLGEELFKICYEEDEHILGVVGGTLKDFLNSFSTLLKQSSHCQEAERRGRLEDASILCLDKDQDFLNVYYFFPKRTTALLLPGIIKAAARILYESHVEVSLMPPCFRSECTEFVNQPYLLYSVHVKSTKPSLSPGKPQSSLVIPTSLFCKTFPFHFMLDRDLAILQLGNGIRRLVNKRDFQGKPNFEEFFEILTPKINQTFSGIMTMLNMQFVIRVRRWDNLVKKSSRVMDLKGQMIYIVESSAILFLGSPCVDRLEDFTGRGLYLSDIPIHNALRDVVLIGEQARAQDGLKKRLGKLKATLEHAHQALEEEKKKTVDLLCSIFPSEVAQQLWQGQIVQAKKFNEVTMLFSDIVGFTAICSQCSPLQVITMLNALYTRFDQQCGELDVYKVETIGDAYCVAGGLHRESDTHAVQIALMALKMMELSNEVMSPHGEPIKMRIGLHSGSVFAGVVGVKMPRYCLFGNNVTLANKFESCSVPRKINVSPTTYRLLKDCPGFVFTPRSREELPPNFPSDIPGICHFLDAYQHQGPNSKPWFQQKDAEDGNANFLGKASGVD
T1 sequence (P20595 1-619): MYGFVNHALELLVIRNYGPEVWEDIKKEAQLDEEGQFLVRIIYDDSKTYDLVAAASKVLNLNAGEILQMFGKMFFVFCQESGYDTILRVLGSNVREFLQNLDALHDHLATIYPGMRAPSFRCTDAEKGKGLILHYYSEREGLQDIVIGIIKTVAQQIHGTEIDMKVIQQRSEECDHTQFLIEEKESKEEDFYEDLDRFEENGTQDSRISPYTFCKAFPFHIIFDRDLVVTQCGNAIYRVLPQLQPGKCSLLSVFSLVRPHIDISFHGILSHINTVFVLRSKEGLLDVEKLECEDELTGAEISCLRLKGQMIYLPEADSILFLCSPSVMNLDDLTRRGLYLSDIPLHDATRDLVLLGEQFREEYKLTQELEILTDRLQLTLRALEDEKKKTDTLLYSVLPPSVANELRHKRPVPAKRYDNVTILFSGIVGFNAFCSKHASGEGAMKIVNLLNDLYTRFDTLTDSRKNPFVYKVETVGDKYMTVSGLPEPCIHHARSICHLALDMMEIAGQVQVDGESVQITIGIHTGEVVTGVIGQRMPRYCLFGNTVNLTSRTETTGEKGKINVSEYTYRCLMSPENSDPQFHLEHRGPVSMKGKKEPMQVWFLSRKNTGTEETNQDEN
Format: cell-based
Experimental: B-2. Effect on a Recombinant Guanylate Cyclase Reporter Cell Line
The cellular action of the compounds of the invention is determined using a recombinant guanylate cyclase reporter cell line, as described in F. Wunder et al., Anal. Biochem. 339, 104-112 (2005).
Representative MEC values (MEC=minimum effective concentration) for the compounds of the invention are shown in the table below (in some cases as mean values for individual determinations): […]

Compound | MEC [µM]
Cc1noc(C)c1NC(=O)c1c(C)nc2c(OCc3c(F)cccc3F)cc(Cl)cn12 [Example 39, 6-Chloro-8-[(2,6-difluorobenzyl)oxy]-N-(3,5-dimethyl-1,2-oxazol-4-yl)-2-methylimidazo[1,2-a]pyridine-3-carboxamide] | 1.0
Cc1n[nH]c(C(F)(F)F)c1NC(=O)c1c(C)nc2c(OCc3c(F)cccc3F)cc(Cl)cn12 [Example 40, 6-chloro-8-[(2,6-difluorobenzyl)oxy]-2-methyl-N-[3-methyl-5-(trifluoromethyl)-1H-pyrazol-4-yl]imidazo[1,2-a]pyridine-3-carboxamide] | 0.03
Cc1n[nH]c(C)c1NC(=O)c1c(C)nc2c(OCc3c(F)cccc3F)cc(Cl)cn12 [Example 41, 6-chloro-8-[(2,6-difluorobenzyl)oxy]-N-(3,5-dimethyl-1H-pyrazol-4-yl)-2-methylimidazo[1,2-a]pyridine-3-carboxamide] | 0.1
Cc1nn(CCO)c(C)c1NC(=O)c1c(C)nc2c(OCc3c(F)cccc3F)cc(Cl)cn12 [Example 42, 6-chloro-8-[(2,6-difluorobenzyl)oxy]-N-[1-(2-hydroxyethyl)-3,5-dimethyl-1H-pyrazol-4-yl]-2-methylimidazo[1,2-a]pyridine-3-carboxamide] | 0.1
Cc1nn(CC(F)(F)F)c(C)c1NC(=O)c1c(C)nc2c(OCc3c(F)cccc3F)cc(Cl)cn12 [Example 43, 6-chloro-8-[(2,6-difluorobenzyl)oxy]-N-[3,5-dimethyl-1-(2,2,2-trifluoroethyl)-1H-pyrazol-4-yl]-2-methylimidazo[1,2-a]pyridine-3-carboxamide] | 0.03
Cc1nc2c(OCc3c(F)cccc3F)cc(Cl)cn2c1C(=O)Nc1cnn(CC(F)(F)F)c1 [Example 44, 6-chloro-8-[(2,6-difluorobenzyl)oxy]-2-methyl-N-[1-(2,2,2-trifluoroethyl)-1H-pyrazol-4-yl]imidazo[1,2-a]pyridine-3-carboxamide] | 1.0
Cc1nc2c(OCc3c(F)cccc3F)cc(Cl)cn2c1C(=O)Nc1cnn(C(C)C)c1 [Example 45, 6-chloro-8-[(2,6-difluorobenzyl)oxy]-N-(1-isopropyl-1H-pyrazol-4-yl)-2-methylimidazo[1,2-a]pyridine-3-carboxamide] | 0.3
Cc1nc2c(OCc3c(F)cccc3F)cc(Cl)cn2c1C(=O)Nc1cnn(CCO)c1 [Example 46, 6-chloro-8-[(2,6-difluorobenzyl)oxy]-N-[1-(2-hydroxyethyl)-1H-pyrazol-4-yl]-2-methylimidazo[1,2-a]pyridine-3-carboxamide] | 0.1
Cc1nc2c(OCc3c(F)cccc3F)cc(Cl)cn2c1C(=O)Nc1cn[nH]c1C [Example 47, 6-chloro-8-[(2,6-difluorobenzyl)oxy]-2-methyl-N-(5-methyl-1H-pyrazol-4-yl)imidazo[1,2-a]pyridine-3-carboxamide + 6-chloro-8-[(2,6-difluorobenzyl)oxy]-2-methyl-N-(3-methyl-1H-pyrazol-4-yl)imidazo[1,2-a]pyridine-3-carboxamide] | 0.3
Cc1n[nH]c(C)c1NC(=O)c1c(C)nc2c(OCc3c(F)cccc3F)cc(F)cn12 [Example 48, 8-[(2,6-Difluorobenzyl)oxy]-N-(3,5-dimethyl-1H-pyrazol-4-yl)-6-fluoro-2-methylimidazo[1,2-a]pyridine-3-carboxamide] | 0.3
Cc1n[nH]c(C)c1NC(=O)c1c(C)nc2c(OCC3CCCCC3)cccn12 [Example 49, 8-(cyclohexylmethoxy)-N-(3,5-dimethyl-1H-pyrazol-4-yl)-2-methylimidazo[1,2-a]pyridine-3-carboxamide] | 0.1
Cc1n[nH]c(C)c1NC(=O)c1c(C)nc2c(OCc3c(F)cccc3F)cc(N3CCCC3)cn12 [Example 50, 8-[(2,6-difluorobenzyl)oxy]-N-(3,5-dimethyl-1H-pyrazol-4-yl)-2-methyl-6-(pyrrolidin-1-yl)imidazo[1,2-a]pyridine-3-carboxamide] | 1.0
Cc1n[nH]c(C)c1NC(=O)c1c(C)nc2c(OCc3c(F)cccc3F)cc(N3CCOCC3)cn12 [Example 51, 8-[(2,6-difluorobenzyl)oxy]-N-(3,5-dimethyl-1H-pyrazol-4-yl)-2-methyl-6-(morpholin-4-yl)imidazo[1,2-a]pyridine-3-carboxamide] | 1.0
Cc1cc(OCc2c(F)cccc2F)c2nc(C)c(C(=O)Nc3c(C)n[nH]c3C)n2c1 [Example 52, 8-[(2,6-difluorobenzyl)oxy]-N-(3,5-dimethyl-1H-pyrazol-4-yl)-2,6-dimethylimidazo[1,2-a]pyridine-3-carboxamide] | 0.65
Cc1n[nH]c(C)c1NC(=O)c1c(C)nc2c(OCc3cccc(F)c3F)cc(Cl)cn12 [Example 53, 6-chloro-8-[(2,3-difluorobenzyl)oxy]-N-(3,5-dimethyl-1H-pyrazol-4-yl)-2-methylimidazo[1,2-a]pyridine-3-carboxamide] | 1.0
Cc1nc2c(OCc3c(F)cccc3F)cccn2c1C(=O)Nc1c(-c2ccccc2)noc1C [Example 55, 8-[(2,6-Difluorobenzyl)oxy]-2-methyl-N-(5-methyl-3-phenyl-1,2-oxazol-4-yl)imidazo[1,2-a]pyridine-3-carboxamide] | 1.0
Cc1nn(C)c(C)c1NC(=O)c1c(C)nc2c(OCc3c(F)cccc3F)cccn12 [Example 57, 8-[(2,6-Difluorobenzyl)oxy]-2-methyl-N-(1,3,5-trimethyl-1H-pyrazol-4-yl)imidazo[1,2-a]pyridine-3-carboxamide] | 3.0
Cc1nc2c(OCc3c(F)cccc3F)cccn2c1C(=O)Nc1nccc2ccccc12 [Example 59, 8-[(2,6-difluorobenzyl)oxy]-N-(isoquinolin-1-yl)-2-methylimidazo[1,2-a]pyridin-3-carboxamide trifluoroacetate] | 1.0

More lines, now with the values ahead:

MEC [µM] | Compound
0.03 | Cc1nc2c(OCc3c(F)cccc3F)cccn2c1C(=O)Nc1ccnc2ccc(F)cc12 [Example 54, 8-[(2,6-Difluorobenzyl)oxy]-N-(6-fluoroquinolin-4-yl)-2-methylimidazo[1,2-a]pyridine-3-carboxamide]
0.1 | Cc1nc2c(OCc3c(F)cccc3F)cccn2c1C(=O)Nc1cccc2ccccc12 [Example 56, 8-[(2,6-difluorobenzyl)oxy]-2-methyl-N-(naphthalen-1-yl)imidazo[1,2-a]pyridine-3-carboxamide]
0.3 | Cc1cccc(C)c1NC(=O)c1c(C)nc2c(OCc3c(F)cccc3F)cccn12 [Example 58, 8-[(2,6-difluorobenzyl)oxy]-N-(2,6-dimethylphenyl)-2-methylimidazo[1,2-a]pyridine-3-carboxamide]
0.3 | Cc1nc2c(OCc3c(F)cccc3F)cccn2c1C(=O)Nc1cccc2cccc(Cl)c12 [Example 60, N-(8-Chloronaphthalen-1-yl)-8-[(2,6-difluorobenzyl)oxy]-2-methylimidazo[1,2-a]pyridine-3-carboxamide trifluoroacetate]
0.3 | Cc1nc2c(OCc3c(F)cccc3F)cccn2c1C(=O)Nc1cccc2cc(Cl)ccc12 [Example 61]
1.0 | Cc1nc2c(OCc3c(F)cccc3F)cccn2c1C(=O)Nc1ccc(Cl)c2ccccc12 [Example 62]
0.3 | Cc1ccc2c(NC(=O)c3c(C)nc4c(OCc5c(F)cccc5F)cccn34)c(C)ccc2n1 [Example 63]
0.2 | Cc1ccc2c(NC(=O)c3c(C)nc4c(OCc5c(F)cccc5F)cccn34)cccc2n1 [Example 64]
1.0 | Cc1ccc2cccnc2c1NC(=O)c1c(C)nc2c(OCc3c(F)cccc3F)cccn12 [Example 65]
0.1 | Cc1ccc2ccccc2c1NC(=O)c1c(C)nc2c(OCc3c(F)cccc3F)cccn12 [Example 66]
0.3 | Cc1nc2c(OCc3c(F)cccc3F)cccn2c1C(=O)Nc1cccc2cnccc12 [Example 67]
0.3 | Cc1nc2c(OCc3c(F)cccc3F)cccn2c1C(=O)Nc1cccc2ncccc12 [Example 68]
